Laboratory results published in paper PMC11847841, “The development and evaluation of a tublysine-based antibody-drug conjugate with enhanced tumor therapeutic efficacy” (Frontiers in Pharmacology, 2025).
Where two headings read alike, the source gives them in different places.

How the values were obtained:
[1] = tested on: BT-474 human breast cancer xenografts; test: BT-474 xenograft efficacy study; type: in vivo, BALB/c nude mice; conditions: BT-474 model, administered alone
[2] = tested on: tumor cells; test: In vitro cytotoxicity of Tub114 and Tub114-cys; type: cell-based; conditions: at the same concentration as the corresponding ADC; Supplementary Figure S2
Experimental: EC50 values were calculated using the built-in software.

[3] = Single-dose pharmacokinetic study in cynomolgus monkey
[4] = tested on: HER2-positive BT-474 cells; test: In vitro endocytosis into BT-474 cells; type: cell-based, human
Experimental: (§1) BT-474 and SK-BR-3 cells were cultured to the exponential growth phase, harvested, and washed with pre-cooled PBS. […] Alexa Fluor 488-conjugated goat anti-human IgG (H + L) secondary antibody (10 μg/mL; Invitrogen, Shanghai, China) was subsequently added, and the cells were incubated on ice for 30 min. After additional washes, the cells were resuspended in pre-cooled PBS, divided into five aliquots, and incubated at 37°C for 0, 10, 30, 90, or 120 min. At each time point, cells were further split into two sub-aliquots: one treated with Trypan Blue to quench extracellular fluorescence and the other with PBS as an unquenched control. Fluorescence intensity was measured using a flow cytometer (Guava, Merck Millipore). The percentage of endocytosis was calculated as the ratio of quenched to unquenched fluorescence multiplied by 100%.

[5] = tested on: HER2-negative cell line MDA-MB-468; test: In vitro inhibition of proliferation of HER2-negative cells (EZMTT); type: cell-based, human; conditions: at high concentrations
[6] = tested on: HER2-positive SK-BR-3 cells; test: In vitro endocytosis into SK-BR-3 cells; type: cell-based, human
Experimental: as §1

[7] = exceeds total body water content in rats; ref Pharmaceuticals and Medical Devices Agency, 2013; cited from earlier work
[8] = cited from earlier work; for Cmax of free payload: ref Poon et al., 2013
[9] = Tub114-cys alone 1 mg/kg single administration
[10] = free Tub114-cys in plasma after DX126-262 3 mg/kg single i.v.
[11] = free Tub114-cys in plasma after DX126-262 10 mg/kg single i.v.
[12] = free Tub114-cys in plasma after DX126-262 30 mg/kg single i.v.

CCC(C)C(NC(=O)C(C)(C)N(C)C)C(=O)N(C)C(CC(OC(C)=O)c1nc(C(=O)NC(Cc2ccc(O)c(NC(=O)CCCNC(=O)C(CCCCNC(=O)COCCOCCOCCOCCOCCOCCOCCOCCOCCOC)NC(=O)CCCN3C(=O)CC(SCC(N)C(=O)O)C3=O)c2)CC(C)C(=O)O)cs1)C(C)C (centres unmarked) [Tub114-cys]
Antitumor effect [1]: no antitumor effect | Killing of tumor cells by free payload [2]: neither Tub114 nor Tub114-cys could kill tumor cells at the same concentration as the corresponding ADC | Cmax of free payload ([3]; Tub114-cys after 3 mg/kg DX126-262): 5.5 nM | Cmax of free payload ([3]; Tub114-cys after 10 mg/kg DX126-262): 14.6 nM | Cmax of free payload ([3]; Tub114-cys after 30 mg/kg DX126-262): 31.7 nM | AUCinf [3, 9]: 4,501.5 ± 657.9 ng•hr/mL | CL [3, 9]: 3.772 ± 0.578 mL/min/kg | Cmax [3, 9]: 4,155.8 ± 464.2 ng/mL | T1/2 [3, 9]: 1.2 ± 0.2 h | Vss [3, 9]: 0.2538 ± 0.0307 L/kg | AUC inf [3, 10]: 519.2 ± 381.9 ng·h/mL | Cmax [3, 10]: 9.5 ± 1.1 ng/mL | T1/2 [3, 10]: 51.4 ± 47.1 h | AUC inf [3, 11]: 966.4 ± 115.4 ng·h/mL | Cmax [3, 11]: 25.0 ± 5.2 ng/mL | T1/2 [3, 11]: 26.6 ± 6.6 h | AUC inf [3, 12]: 2,505.7 ± 419.6 ng•hr/mL | Cmax [3, 12]: 54.3 ± 5.7 ng/mL | T1/2 [3, 12]: 28.1 ± 2.7 h

ado-trastuzumab emtansine [Kadcyla]
Endocytosis Efficiency ([4]; BT-474, incubation time 0 min): 10.8% | Endocytosis Efficiency ([4]; BT-474, incubation time 10 min): 27.3% | Endocytosis Efficiency ([4]; BT-474, incubation time 30 min): 34.2% | Endocytosis Efficiency ([4]; BT-474, incubation time 90 min): 38.6% | Endocytosis Efficiency ([4]; BT-474, incubation time 120 min): 43.8% | Toxicity to HER2-negative cell line MDA-MB-468 [5]: some inhibitory effects | Endocytosis Efficiency ([6]; SK-BR-3, incubation time 0 min): 9.3% | Endocytosis Efficiency ([6]; SK-BR-3, incubation time 10 min): 11.8% | Endocytosis Efficiency ([6]; SK-BR-3, incubation time 30 min): 17.4% | Endocytosis Efficiency ([6]; SK-BR-3, incubation time 90 min): 31.6% | Endocytosis Efficiency ([6]; SK-BR-3, incubation time 120 min): 33.4%

COc1cc2cc(c1Cl)N(C)C(=O)C[C@H](OC(=O)[C@H](C)N(C)C(=O)CCS)[C@]1(C)O[C@H]1[C@H](C)[C@@H]1C[C@@](O)(NC(=O)O1)[C@H](OC)/C=C/C=C(\C)C2 [DM1]
Vss [7]: > 0.668 L/kg | Cmax of free payload ([8]; DM1 after 3 mg/kg Kadcyla): 8.0 nM | Cmax of free payload ([8]; DM1 after 10 mg/kg Kadcyla): 28.2 nM | Cmax of free payload ([8]; DM1 after 30 mg/kg Kadcyla): 90.2 nM

CC[C@@]1(O)C(=O)OCc2c1cc1n(c2=O)Cc2c-1nc1cc(F)c(C)c3c1c2[C@@H](NC(=O)CO)CC3 [Dxd]
Vss ([8]; Dxd 1 mg/kg, ref Nagai et al., 2019): 0.832 L/kg
